Results on 2 compounds are retold here after US9211270B2, “Method for improving the efficacy of curcuminoids and their analogs” (ASAC Compañía de Biotecnología e Investigación, S.A., priority 2007, dated 2015).

One experiment deals with psoriasis. The conditions noted are these: 12 week studies; cited from earlier work.
Experiment [1] deals with A431 cells (human epidermal carcinoma). Kind of experiment: Inhibition of tumor growth in mice, intraperitoneal Curcumin with visible light. In kind it is in vivo, athymic nude mice (NMRI). As to conditions: day 12, Curcumin 50 mg/kg per day i.p. + visible light 5500 lx 20 minutes.
Procedure: 5*10^6 A431 cells (human epidermal carcinoma) were injected subcutaneously into the left and right flanks of athymic nude mice (NMRI) (5-6 weeks old, 20-24 g). The mice were fed in pathogen-free conditions. The animals were fed ad libitum with sterilized food. The animals were sterilized with ketamine/xylazine.
The irradiation device was 10 Phillips TLK 40W/03 lamps (60 cm length*4 cm diameter), at a distance of 45 cm. The emission range of the lamps was between 400-550 nm with a maximum at 420 nm.
Tumor size was measured initially and after 10-12 days; afterwards tumor volumes and weights were determined twice a week. At the end of the experiment (29 days), the animals were anesthetized and sacrificed.

As to Efalizumab, the “patients who reached a score of PASI-75” value in the experiment on psoriasis was 22-35%.

On to `COc1cc(/C=C/C(=O)CC(=O)/C=C/c2ccc(O)c(OC)c2)ccc1O` [Curcumin, curcumin (diferuloylmethane)], for which, in experiment [1], the “reduction of average tumor volume in comparison to control mice” value worked out at 70%.
